For data set [1], the system named is RNA transcription products from PolI (preribosome), PolII (myc), and PolRMT (ATP6) in PC-3 cells. Kind of data set: RNA transcripts in PC-3 cells by RT-PCR. The following applies: 100 μM, 1-day treatment. The class given is cell-based, human. Here is the method: CX-5461, a known specific RNA PolI inhibitor, was used as the positive control ([25]). The growth medium was aspirated and replaced with 200 μl of 100 μM BMS-986094, 5 μM CX-5461, or DMSO control prepared in growth medium. At selected time points (0.5, 1, 4, 8, and 24 h), duplicate wells of the compounds and DMSO control were aspirated, the cells were washed 1× with PBS (pH 7.4), and 100 μl of RNA lysis buffer was added (Promega, Sunnyvale, CA). RNA was purified using the Wizard SV 96 total RNA isolation kit (Promega) and eluted in 100 μl of nuclease-free water. The TaqMan RNA-to-Ct 1-step kit (ABI/Life Technologies) was used for reverse transcription-quantitative PCR (RT-qPCR) amplification and quantification, using the 7900HT Fast real-time PCR system (ABI) under the following conditions: 15 min at 48°C for reverse transcription and 10 min at 95°C for activation, followed by 40 cycles of 15 s at 95°C for denaturation and 1 min at 60°C for annealing and extension. […] Transcripts were quantified relative to the standard curves, and the results expressed as the percentages of the average value of DMSO control wells.

The next data set relates to HCV replicon. More on the design: method as in PMID 21357300, PMID 21060109. As to conditions: cited from earlier work.
Data set [2] is described as follows: Spare respiratory capacity in primary rat cardiomyocytes. As to conditions: Sprague Dawley, rat, primary rat neonatal cardiomyocytes.
Procedure: (§2) Primary rat neonatal cardiomyocytes were isolated from 3-day-old Sprague Dawley rat pups as described previously ([14]).
(§3) Mitochondrial respiration was monitored by measuring the rate of oxygen consumption (OCR) of PC-3 cells after 3-day treatments with the compounds, using a Seahorse extracellular flux analyzer (XF^e-96) based on published protocols ([22][–][24]). The optimal cell seeding was determined by measuring the basal OCR of PC-3 cells that were seeded at different densities of 2.5 × 10^3, 5 × 10^3, 7.5 × 10^3, and 10 × 10^3 cells/well in XF 96-well plates (Seahorse Bioscience, North Billerica, MA) and incubated with 0.5% dimethyl sulfoxide (DMSO) for 3 days. […] Each reagent in the Mito Stress test kit (Seahorse Biosciences), i.e., ATP synthase inhibitor oligomycin, mitochondrial uncoupler carbonyl cyanide-4-(trifluoromethoxy)phenylhydrazone (FCCP), and a fixed-ratio mixture of the mitochondrial complex I (NADH dehydrogenase) inhibitor rotenone and the complex III (CoQH2-cytochrome c reductase) inhibitor antimycin A, was titrated. […] The OCR signals were normalized by cell numbers using DNA content determined by Hoechst's stain as described below.
(§4) PC-3 cells were seeded at a density of 5 × 10^3 cells/well in XF 96-well plates and incubated with the compounds for 3 days. […] Mitochondrial respiration was monitored by measuring OCR on a Seahorse extracellular flux analyzer (XF^e-96). […]
In data set [3] the test system is mitochondrial respiration in primary rat cardiomyocytes. The data set is described as above. The following applies: primary rat cardiomyocytes, 3-day treatments.
Procedure: as §2, §3, §4
Data set [4] can be described thus: Cytotoxicity in primary rat neonatal cardiomyocytes, 5 days. The class given is cell-based. The following applies: Sprague Dawley, 5-day treatment, read-out: CC50 (mean ± standard deviation) in primary rat cardiomyocytes.
The next data set has as its target T1, RNA PolI (Rattus norvegicus, UniProt O54889).
T1 construct: complexes were isolated from rat NSN1 cells and HeLa cells, respectively; made in house; host or cells: rat NSN1 cells expressing a FLAG-tagged Pol I subunit
Kind of data set: RNA PolI inhibition assay. As to conditions: NTP analogs 0 to 500 μM; read-out: Mean IC50 ± SD for RNA PolI. The format is biochemical. The text has this:
(§1) Human DNA polymerase alpha, isolated from HeLa cell extracts, was from CHIMERx (Madison, WI). Recombinant human DNA polymerase beta, expressed in E. coli, was a gift from Zucai Suo at The Ohio State University. Recombinant human DNA polymerase gamma (including both the large subunit and the small subunit) was cloned, expressed, and purified from insect cells by Gilead Sciences (Foster City, CA) ([13]). RNA PolII was purchased as part of the HeLaScribe nuclear extract in vitro transcription system kit from Promega (Madison, WI). The recombinant human PolRMT and the transcription factors mitochondrial transcription factor A (mtTFA) and B2 (mtTFB2) were purchased from Enzymax (Lexington, KY). FLAG epitope-tagged RNA PolI and PolIII complexes were isolated from rat NSN1 cells and HeLa cells, respectively ([17], [18]). The inhibition of DNA polymerases alpha, beta, and gamma, PolRMT, and PolII and the rate of single-nucleotide incorporation by PolRMT have been described previously in detail ([12], [13], [19]). Inhibition of RNA PolI and PolIII was studied using published methods ([20], [21]). All concentrations were final unless noted otherwise. For the RNA PolI inhibition assay, a reaction mixture containing 50 mM HEPES (pH 7.9), 20% glycerol, 100 mM KCl, 1 mM dithiothreitol (DTT), 50 μg/ml calf thymus DNA, 4 mM MgCl2, 5 or 80 μM UTP (0.25 μl of [5,6-^3H]UTP, >25 Ci/mmol; PerkinElmer), 1 mM noncompeting NTP, competing NTP (5 μM for GTP, CTP, and UTP and 25 μM for ATP), and various concentrations (0 to 500 μM) of NTP analogs was preincubated at 30°C for 5 min. […] After incubation at 30°C for 20 min to 1 h, the reactions were terminated by pipetting the mixtures onto DEAE-cellulose discs (DE81; Whatman), and the products analyzed as described previously ([20], [21]).

A further data set deals with T2, RNA PolIII (Homo sapiens, UniProt O14802+Q9NW08).
T2 construct: complexes were isolated from rat NSN1 cells and HeLa cells, respectively; made in house; host or cells: HeLa cells expressing a FLAG-tagged Pol III subunit
Kind of data set: RNA PolIII inhibition assay. The following applies: competing NTP 100 μM CTP and GTP, 500 μM ATP; read-out: Mean IC50 ± SD for RNA PolIII. The format is biochemical.
Source text: as §1
The RNA PolIII inhibition assay was conducted in a similar manner, except that the concentrations of the competing NTP were modified to 100 μM for CTP and GTP and 500 μM for ATP to compensate for the low assay signal at lower NTP concentrations.

The test system of another data set is Stimulated PBMCs. Also on record: method as in PMID 24419349. As to conditions: 5 days; read-out: Mean CC50 ± SD in PBMCs Stimulated; cited from earlier work.
Data set [5] can be described thus: Chronic toxicology studies in rats. As to conditions: up to 39 weeks. The format is in vivo.
For another data set, the system named is Quiescent PBMCs. More on the design: method as in PMID 24419349. The following applies: 5 days; read-out: Mean CC50 ± SD in PBMCs Quiescent; cited from earlier work.
A short description of data set [6]: Chronic toxicology studies in dogs. The class given is in vivo. The following applies: up to 39 weeks.

SMILES strings stand for the structures.

T1 sequence (O54889 whole entry): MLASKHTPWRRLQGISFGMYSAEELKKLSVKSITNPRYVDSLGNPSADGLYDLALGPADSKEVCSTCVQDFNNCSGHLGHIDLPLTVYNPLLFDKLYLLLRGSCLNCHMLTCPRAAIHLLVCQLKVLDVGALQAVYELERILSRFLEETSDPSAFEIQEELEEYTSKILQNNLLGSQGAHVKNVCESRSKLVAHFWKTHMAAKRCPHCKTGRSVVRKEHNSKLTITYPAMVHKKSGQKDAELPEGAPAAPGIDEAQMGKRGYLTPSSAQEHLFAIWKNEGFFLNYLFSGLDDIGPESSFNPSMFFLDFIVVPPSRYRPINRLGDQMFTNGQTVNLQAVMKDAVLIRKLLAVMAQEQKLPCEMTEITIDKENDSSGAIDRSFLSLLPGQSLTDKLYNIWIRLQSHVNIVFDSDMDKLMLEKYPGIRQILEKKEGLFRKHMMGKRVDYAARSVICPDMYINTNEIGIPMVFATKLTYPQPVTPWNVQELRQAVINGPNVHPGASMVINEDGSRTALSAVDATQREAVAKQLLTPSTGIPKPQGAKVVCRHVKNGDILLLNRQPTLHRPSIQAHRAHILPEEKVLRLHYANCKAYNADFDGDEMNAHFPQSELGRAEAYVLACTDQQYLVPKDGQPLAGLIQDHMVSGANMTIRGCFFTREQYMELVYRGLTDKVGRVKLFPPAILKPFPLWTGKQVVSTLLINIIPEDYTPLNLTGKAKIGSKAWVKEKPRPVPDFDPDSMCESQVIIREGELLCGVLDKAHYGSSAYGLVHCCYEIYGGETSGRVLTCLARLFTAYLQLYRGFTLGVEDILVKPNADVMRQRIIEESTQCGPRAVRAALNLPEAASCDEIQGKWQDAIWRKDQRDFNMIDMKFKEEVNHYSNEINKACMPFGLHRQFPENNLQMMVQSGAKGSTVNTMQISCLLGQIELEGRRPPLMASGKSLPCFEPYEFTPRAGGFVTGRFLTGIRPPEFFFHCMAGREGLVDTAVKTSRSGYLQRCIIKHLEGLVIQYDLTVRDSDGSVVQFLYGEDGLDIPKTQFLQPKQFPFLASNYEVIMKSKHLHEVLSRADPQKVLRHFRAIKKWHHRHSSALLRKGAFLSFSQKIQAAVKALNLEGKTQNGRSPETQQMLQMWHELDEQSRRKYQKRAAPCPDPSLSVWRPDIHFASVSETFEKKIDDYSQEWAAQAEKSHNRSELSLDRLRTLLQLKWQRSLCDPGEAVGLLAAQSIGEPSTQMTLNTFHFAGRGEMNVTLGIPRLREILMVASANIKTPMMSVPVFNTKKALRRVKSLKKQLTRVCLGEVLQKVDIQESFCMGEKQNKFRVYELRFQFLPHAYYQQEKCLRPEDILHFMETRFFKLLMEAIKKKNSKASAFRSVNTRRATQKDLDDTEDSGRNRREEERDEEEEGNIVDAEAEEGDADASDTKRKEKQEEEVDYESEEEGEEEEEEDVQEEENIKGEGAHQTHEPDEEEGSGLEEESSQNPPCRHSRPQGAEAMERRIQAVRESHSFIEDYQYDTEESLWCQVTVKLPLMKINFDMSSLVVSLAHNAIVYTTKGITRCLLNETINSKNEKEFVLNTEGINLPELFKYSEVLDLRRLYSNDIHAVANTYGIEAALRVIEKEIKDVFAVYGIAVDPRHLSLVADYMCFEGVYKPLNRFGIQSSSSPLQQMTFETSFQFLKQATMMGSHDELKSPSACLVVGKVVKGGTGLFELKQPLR

On to `COc1nc(N)nc2c1ncn2[C@@H]1O[C@H](COP(=O)(N[C@@H](C)C(=O)OCC(C)(C)C)Oc2cccc3ccccc23)[C@@H](O)[C@@]1(C)O` (some centres unmarked) [BMS-986094], for which the “relative levels of RNA transcripts (preribosomal, myc, mitochondrial ATP6, total RNA)” value in data set [1] is listed as “decreased the relative levels of multiple RNA transcripts”. Also, the “fold more potent than IDX184 against the HCV replicon” value in the data set on HCV replicon is on record as 30- to 60 fold. In data set [2], this compound gave a CC50 at 3 days of 0.43 ± 0.14 µM. The “selectivity of effect on spare respiratory capacity versus DNA and ATP levels” value in [3] is reported as “selective inhibition of mitochondrial respiration”. Besides, in [4], the CC50 at 5 days was 0.68 ± 0.32 µM.
`C[C@@]1(O)[C@H](O)[C@@H](COP(=O)(O)OP(=O)(O)OP(=O)(O)O)O[C@H]1n1cnc2c(=O)[nH]c(N)nc21` [2′CMeGTP]: the IC50 on RNA PolI is 300 ± 60 µM; at RNA PolIII, above 500 µM.
For the compound `CC(C)OC(=O)[C@H](C)N[P@](=O)(OC[C@H]1O[C@@](C#N)(c2ccc3c(N)ncnn23)[C@](C)(O)[C@@H]1OC(=O)C(C)C)Oc1ccccc1` [GS-6620], the CC50 in the data set with Stimulated PBMCs and in the data set with Quiescent PBMCs was above 100 µM each time. For the same compound, the “effects during chronic toxicology studies” value in data set [5] and in data set [6] was “did not show” throughout.

The values above are taken from paper PMC4750701, “Role of Mitochondrial RNA Polymerase in the Toxicity of Nucleotide Inhibitors of Hepatitis C Virus” (Antimicrobial Agents and Chemotherapy, 2016).
